The values that follow come from publication PMC7470115, “Design, synthesis and biological evaluation of novel tetrahydrothieno [2,3-c]pyridine substitued benzoyl thiourea derivatives as PAK1 inhibitors in triple negative breast cancer” (Journal of Enzyme Inhibition and Medicinal Chemistry, 2020).

Read-outs that look alike come from different tables or passages of the source.

In data set [1] the test system is MDA-MB-231 cells. In words: Colony formation assay. The data set is classed as cell-based.
For data set [2], the target named is T1, PAK1 (Homo sapiens, UniProt Q13153). Put plainly: Western blot of PAK1 and p-PAK1 Ser199 in MDA-MB-231 cells. The settings on record: 48 h. The data set is classed as cell-based. The procedure: (§1) MDA-MB-231 were purchased from American Type Culture Collection (ATCC, Manassas, VA, USA). Cells were cultured in DMEM with 10% foetal bovine serum and incubated with 5% CO2. Antibodies used in this study were as follows: cdc25c (4688, CST), pcdc2^Tyr[15] (4539, CST), cyclinB1 (4135, CST), PAK1 (ab223849, CST), p-PAK1^Ser199 (ab192814, abcam), JNK (9252, CST), p-JNK (9255, CST), c-Jun (9165, CST), p-c-Jun (3270, CST), p-c-Raf^Ser259(9421, CST), p-MEK ^Ser217/221 (9154, CST), p-ERK ^Thr202/Tyr204 (9101, CST), β-actin (3700, CST). MTT (M2128) was purchased from Sigma- Aldrich (St. Louis, MO, USA).
T1 sequence (Q13153 whole entry): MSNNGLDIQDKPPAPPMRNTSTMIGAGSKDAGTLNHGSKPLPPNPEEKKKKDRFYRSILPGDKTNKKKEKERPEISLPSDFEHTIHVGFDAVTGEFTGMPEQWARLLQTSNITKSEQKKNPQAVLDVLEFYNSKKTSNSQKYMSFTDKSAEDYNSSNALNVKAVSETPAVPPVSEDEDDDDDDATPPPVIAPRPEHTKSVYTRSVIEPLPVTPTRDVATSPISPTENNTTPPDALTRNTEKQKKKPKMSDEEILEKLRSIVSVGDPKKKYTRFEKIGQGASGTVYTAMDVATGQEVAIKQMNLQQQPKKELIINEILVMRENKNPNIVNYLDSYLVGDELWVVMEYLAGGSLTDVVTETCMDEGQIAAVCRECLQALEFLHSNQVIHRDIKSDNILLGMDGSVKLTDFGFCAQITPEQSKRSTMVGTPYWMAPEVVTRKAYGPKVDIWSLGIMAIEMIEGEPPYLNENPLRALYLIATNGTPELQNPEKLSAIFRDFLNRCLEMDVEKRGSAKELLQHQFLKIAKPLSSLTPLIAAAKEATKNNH
(§2) Cells were treated with 7j for indicated times. Both adherent and floating cells were collected. Western blot analysis was carried out. Briefly, the cell pellets were resuspended with lysis buffer consisting of Hepes 50 mM pH 7.4, Triton-X-100 1%, sodium orthovanada 2 mM, sodium fluoride 100 mM, edetic acid 1 mM, PMSF 1 mM, aprotinin (Sigma, MO, USA) 10 mg/L and leupeptin (Sigma) 10 mg/L and lysed at 4 °C for 1 h. After 12,000 rpm centrifugation for 15 min, the protein content of supernatant was determined by the Bio- Rad DC protein assay (Bio-Rad Laboratories, Hercules, CA, USA). Equal amounts of the total protein were separated by 10–15% SDS-PAGE and transferred to PVDF membranes, the membranes were soaked in blocking buffer (5% skimmed milk or BSA). Proteins were detected using primary antibodies, followed by HRP-conjugated secondary antibody and visualised by using ECL as the HRP substrate. Quantification of immunoblot was performed by Quantity One 4.4.

Data set [3] has as its system MAPK-JNK pathway. Put plainly: Western blot of MAPK-JNK pathway in MDA-MB-231 cells. Conditions: 2.5, 5, 10 µM, 48 h western blot. The data set is classed as cell-based. The procedure: as §2
The target in data set [4] is T1, PAK1. Put plainly: PAK1 enzymatic assay (Kinase-Glo Plus / ADP-Glo luminescence). The data set is classed as biochemical. The procedure:
These assays were carried out as described previously. All of the enzymatic reactions were conducted at 30 °C for 40 min. The 50 µl reaction mixture contains 40 mM Tris, pH 7.4, 10 mM MgCl2, 0.1 mg/ml BSA, 1 mM DTT, 50 µM ATP, 0.2 μg/ml PAK1 and 100 uM lipid substrate. The compounds were diluted in 10% DMSO and 5 µl of the dilution was added to a 50 µl reaction so that the final concentration of DMSO is 1% in all of the reactions. The assay was performed using the Kinase-Glo Plus luminescence kinase assay kit and ADP-Glo Plus luminescence kinase assay kit. It measures kinase activity by quantitating the amount of ATP remaining in solution following a kinase reaction. The luminescent signal from the assay is correlated with the amount of ATP present and is inversely correlated with the amount of kinase activity. The IC50 values were calculated using nonlinear regression with normalised dose − response fit using Prism GraphPad software.

Data set [5] relates to MDA-MB-231 cells. Put plainly: Cell viability assay (MTT). Conditions: for IC50: MTT. The data set is classed as cell-based. How it is done:
as §1
Cells were dispensed in 96-well plates at a density of 5 × 10^4 cells/ml. After 24 h or 48 h incubation, cells were treated with different concentrations of compounds for the indicated time periods. Cell viability was measured by the MTT assay.

The test system of data set [6] is MAPK-ERK pathway. In words: Immunofluorescence and western blot of MAPK-ERK pathway in MDA-MB-231 cells. The data set is classed as cell-based. How it is done: (§3) For immunofluorescence staining, non-specific antibody binding was blocked by incubating with PBS containing 1.5% goat serum. The MDA-MB-231 cells were sequentially incubated, starting with p-cdc2^Tyr[15] antibody (1:200), p-ERK1/2 ^Thr202/Tyr204 antibody (1:200) diluted in PBS containing 1% BSA incubated overnight at 4 °C, followed by addition of fluorescent-labelled secondary antibodies for 1 h at room temperature.
as §2

Data set [7] deals with cdc25c/cdc2 pathway. Put plainly: Immunofluorescence and western blot of cdc25c/cdc2 pathway in MDA-MB-231 cells. The data set is classed as cell-based. The procedure:
as §3, §2
Cells were transfected with PAK1 (6361, CST) and negative control (6568, CST) siRNAs at 100 nM final concentration using Lipofectamine RNAiMAX/Lip3000 reagent (Invitrogen) according to the manufacturer’s instructions. The transfected cells were used for subsequent experiments 48 h later.

For data set [8], the target named is T1, PAK1. In words: Cellular thermal shift assay (CETSA). The data set is classed as cell-based. The settings on record: 10 μM, 24 h; 48, 52, 56 °C. How it is done:
The ability of 7j to interact with and stabilise PAK1 protein in intact cells, was analysed as described before. Briefly, cells cultured in 100 × 20 mm tissue culture dishes at 90% confluence were treated with media containing DMSO or 7j (10 μM) for 24 h. After that cells were detached with trypsin and re-suspended in PBS. The cell suspension was heated for 3 min to 48, 52, and 56 °C. Subsequently, cells were lysed using liquid nitrogen and two repeated cycles of freeze-thaw. Precipitated proteins were separated from the soluble fraction by centrifugation at 17,000 g for 20 min. Soluble proteins, collected in the supernatant, were kept at −80 °C until Western blot analysis.

For data set [9], the system named is MDA-MB-231 cells. Put plainly: Cell cycle assay (PI staining, flow cytometry). The settings on record: 2.5, 5, 10 μM, 48 h. The data set is classed as cell-based. The procedure:
For cell cycle detection, MDA-MB-231 cells were treated with 2.5, 5, 10 μM 7j for 48 h and then ethyl alcohol-fixed at 4 °C for 24 h. Then the cell cycle distribution were determined by flow cytometry analysis of PI staining.

[10] abbreviates: tested in triplicate, mean ± SD, 50 µM ATP, read-out: Kinase inhibitory activity (IC50, μM) PAK1.
Setting [11] is: 2.5, 5, 10 µM, 48 h western blot.

In the case of `NC(=O)c1c(NC(=S)NC(=O)c2cccc(C(F)(F)F)c2)sc2c1CCN(C(=O)C1CC1)C2` [Compound 7j, 6-(cyclopropanecarbonyl)-2–(3-(3-(trifluoromethyl)benzoyl)thioureido)-4,5,6,7-tetrahydrothieno[2,3-c]pyridine-3-carboxamide], the “Proliferation and colony formation ability of MDA-MB-231 cells” value in data set [1] is reported as “obviously inhibited”. For the same molecule, the “Phosphorylation of PAK1 at Ser199” value in [2] (2.5, 5, 10 μM) is “inhibited the phosphorylation of PAK1 at Ser199”. For the same molecule, the “PAK1 expression (western blot)” value in data set [2] (larger dose 10 μM) was “suppressed PAK1 expression”; in [2] (smaller dose 2.5 μM and 5 μM), “did not affect PAK1 expression”. The “JNK and c-Jun phosphorylation” value in data set [3] was “decrease of JNK and c-Jun phosphorylation”. Besides, the “Fold less PAK1 inhibitory activity in comparison to the standard FRAX597” value in data set [4] (7j versus FRAX597) was “over 10 fold”. Also, the IC50 was 0.21 ± 0.05 µM in data set [4] (setting [10]); 0.209 µM in [4] (value given in nM in the text, read-out: PAK1 IC50); 7.37 µM in [5] (Homo sapiens, MDA-MB-231, 24 h, 24 h, read-out: MDA-MB-231 cell viability IC50, 24 h); 4.67 µM in data set [5] (Homo sapiens, MDA-MB-231, 48 h, 48 h, read-out: MDA-MB-231 cell proliferation IC50, 48 h); 4.67 µM in data set [5] (48 h, read-out: MDA-MB-231 cell proliferation IC50, 48 h). Besides, in [6] (5 µM, 48 h immunofluorescence), the “p-ERK1/2 Thr202/Tyr204 expression and nucleus distribution” value is “inhibited its expression and nucleus distribution”. Also, the “Phosphorylation of p-c-Raf, p-MEK1/2 and p-ERK1/2” value in data set [6] (setting [11]) is “suppressed MAPK-ERK pathway”. Moreover, the “p-cdc2 Tyr15 expression” value in data set [7] (5 µM, 48 h immunofluorescence) is on record as “obviously increased”. In [7] (setting [11]), the “Expression of cdc25c, cyclinB1, Pin1 and NEDD8” value was “could decrease the expression”. Further, in [7] (si-PAK1, 5 μM, 48 h), the “Phosphorylation of p-cdc2 at Tyr15 after PAK1 knockdown” value is listed as “almost did not affect”. Besides, the “Thermal stabilisation of PAK1 (CETSA)” value in data set [8] is recorded as “could stabilise PAK1”. Also, in data set [9], the Cell cycle arrest result is recorded as “induced obviously G2/M cell cycle arrest”.
Molecule `CC(=O)N1CCc2c(sc(NC(=S)NC(=O)c3cccc(C(F)(F)F)c3)c2C(N)=O)C1` [Compound 7d, 6-acetyl-2–(3-(3-(trifluoromethyl)benzoyl)thioureido)-4,5,6,7-tetrahydrothieno[2,3-c]pyridine-3-carboxamide] returned a melting point of 166 to 169 °C. The IC50 in data set [4] (setting [10]) amounted to 1.15 ± 0.97 µM.
`NC(=O)c1c(NC(=S)NC(=O)c2cccc(C(F)(F)F)c2)sc2c1CCN(C(=O)c1ccccc1Cl)C2` [Compound 7c, 6–(2-chlorobenzoyl)-2–(3-(3-(trifluoromethyl)benzoyl)thioureido)-4,5,6,7-tetrahydrothieno[2,3-c]pyridine-3-carboxamide] returned a melting point of 166 to 169 °C. In addition, the IC50 in data set [4] (setting [10]) was found to be 9.37 ± 1.03 µM.
Turning to `CC(C)(C)OC(=O)N1CCc2c(sc(NC(=O)c3ccccc3)c2C(N)=O)C1` [2169–1087], the inhibition at 30 µM in [4] (read-out: PAK1 inhibition rate at 30 μM) turned out to be 78%. Also, the IC50 in [4] (setting [10]) is 23.5 µM. The “Antiproliferatory activity in MDA-MB-231 cells at 50 μM” value in [5] (50 μM) is listed as “no antiproliferatory activity”.
